No end group written: not given here.

We go through 6 substances from PMC3154745 (Chembiochem : a European journal of chemical biology, 2011).

The subject of one assay is HP1β (homodimerization). Briefly: Equilibrium analytical ultracentrifugation, HP1β self-association. The following applies: same buffer conditions.
The next assay has as its target T1, wild-type HP1a-CSD (Drosophila melanogaster, UniProt P05205).
T1 sequence (P05205 131-206): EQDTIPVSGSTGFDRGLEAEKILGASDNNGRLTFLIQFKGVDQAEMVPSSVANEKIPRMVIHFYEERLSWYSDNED
Briefly: Fluorescence polarization binding assay, wild-type HP1a-CSD. The following applies: for affinity for HP1a CSD compared with the PIWI peptide: in words, Kd not given.

For a further assay, the target named is HP1a-CSD I191E mutant (Drosophila melanogaster, UniProt P05205, I191E). Briefly: biochemical.
Chain of HP1a-CSD I191E mutant (P05205 131-206 I191E): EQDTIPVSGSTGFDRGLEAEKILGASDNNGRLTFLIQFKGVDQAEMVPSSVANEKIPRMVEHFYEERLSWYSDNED
Assay [1] deals with HP1a-CSD S199E and S202E double mutant (Drosophila melanogaster, UniProt P05205, S199E/S202E). Type of assay: binding. The following applies: FP; for enhancement of affinity by the phosphorylation mimic, relative to WT CSD: S199E S202E double mutant vs WT HP1a-CSD.
Chain of HP1a-CSD S199E and S202E double mutant (P05205 131-206 S199E/S202E): as the sequence (P05205 131-206 I191E) above, with E61I, S69E, S72E counted along it
Assay [2] concerns the target HP1a-CSDΔ204 (residues 131–203) (Drosophila melanogaster, UniProt P05205). Format: binding. As to conditions: FP; Δ204 (last three residues removed) vs WT HP1a-CSD.
A further assay has as its target HP1a-CSD E195Q mutant (Drosophila melanogaster, UniProt P05205, E195Q). Format: binding. As to conditions: FP; E195Q vs WT HP1a-CSD.
A further assay addresses HP1a-CSD W200A mutant (Drosophila melanogaster, UniProt P05205, W200A). Briefly: biochemical.

Chain of HP1a-CSD W200A mutant (P05205 131-206 W200A): as the sequence (P05205 131-206 I191E) above, with E61I, W70A counted along it
Chain of HP1a-CSD E195Q mutant (P05205 131-206 E195Q): as the sequence (P05205 131-206 I191E) above, with E61I, E65Q counted along it

As to “full length HP1β: recombinant full length mammalian HP1β (human and mouse sequences identical)”, in the assay with HP1β (homodimerization), the “dimerization tighter than that of HP1a” value worked out at 3 times.

“TSRGSGDLSVKIFRGSSSGDY [PIWI peptide with HP2 pentamer]” returned a Kd on wild-type HP1a-CSD of 21.3 ± 1.3 µM.

Turning to H-PATTSPLVVLSNQLPLNSVAASY-OH [AF10], the “affinity for HP1a CSD compared with the PIWI peptide” value at wild-type HP1a-CSD (FP, WT HP1a-CSD) is listed as “quite similar”.

Turning to QNISPRKLSVKINRRPYNKWLR [HP2], the equilibrium dissociation constant (Kd) is over 400 µM at HP1a-CSD I191E mutant and over 500 µM at HP1a-CSD W200A mutant. For the same substance, the “Hill coefficient of peptide binding” value in assay [1] (S199E S202E double mutant) came to 1.7 ± 0.3. The “enhancement of affinity by the phosphorylation mimic, relative to WT CSD” value in assay [1] is given as 7 fold. In addition, the “weaker binding to the Δ204 construct, relative to WT CSD” value in assay [2] is listed as 16 fold. For the same substance, at wild-type HP1a-CSD (FP, WT HP1a-CSD, sub-micromolar to micromolar range), the “difference in dissociation constant between HP2 and PIWI peptides” value is “two-order of magnitude difference”. The “drop in affinity caused by the E195Q mutation, relative to WT CSD” value on HP1a-CSD E195Q mutant came to 10 fold.

“H-SEGRRLYPLLPRISPQTALSIVANDLAESD-OH [CG15356]”: the “affinity for HP1a CSD compared with the PIWI peptide” value on wild-type HP1a-CSD (FP, WT HP1a-CSD) is on record as “quite similar”.

In the case of TSRGSGDPRVKVFRGSSSGDY [PIWI], the Kd on HP1a-CSD I191E mutant and on HP1a-CSD W200A mutant was over 2000 µM throughout. Further, the “enhancement of affinity by the phosphorylation mimic, relative to WT CSD” value in assay [1] is on record as 12 fold. Further, in assay [2], the “weaker binding to the Δ204 construct, relative to WT CSD” value amounted to 3 fold. Also, the “drop in affinity caused by the E195Q mutation, relative to WT CSD” value on HP1a-CSD E195Q mutant is given as 5 fold.
